Test results taken from patent US9434711B2 (Janssen Pharmaceutica, NV, priority 2007, dated 2016).
Read-outs that look alike come from different tables or passages of the source.

Target: canine TRPM8 (Canis lupus familiaris, UniProt Q1A7N1)
Experiment: In Vitro Canine TRPM8 Functional Assay (Ca2+ fluorescence, icilin activation)
Assay type: cell-based
Settings: for IC50: HEK293 cells stably expressing canine TRPM8, icilin activation, eight-point dose-response, read-out: IC50; for inhibition at 0.5 µM: compound at 0.5 μM, read-out: % Inh @ 0.5
Outline: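 Cells (HEK293, stable canine TRPM8) are seeded 24 h before assay. They are then dye-loaded with Calcium 3 at 37 °C followed by room temperature. Compound is added and monitored for 5 min, after which icilin (~80% maximal response) is added.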

[1] = compound at 0.2 μM, canine TRPM8, icilin activation, read-out: % Inh @ 0.2
[2] = canine TRPM8, icilin activation

Chain of canine TRPM8 (Q1A7N1 1-1104): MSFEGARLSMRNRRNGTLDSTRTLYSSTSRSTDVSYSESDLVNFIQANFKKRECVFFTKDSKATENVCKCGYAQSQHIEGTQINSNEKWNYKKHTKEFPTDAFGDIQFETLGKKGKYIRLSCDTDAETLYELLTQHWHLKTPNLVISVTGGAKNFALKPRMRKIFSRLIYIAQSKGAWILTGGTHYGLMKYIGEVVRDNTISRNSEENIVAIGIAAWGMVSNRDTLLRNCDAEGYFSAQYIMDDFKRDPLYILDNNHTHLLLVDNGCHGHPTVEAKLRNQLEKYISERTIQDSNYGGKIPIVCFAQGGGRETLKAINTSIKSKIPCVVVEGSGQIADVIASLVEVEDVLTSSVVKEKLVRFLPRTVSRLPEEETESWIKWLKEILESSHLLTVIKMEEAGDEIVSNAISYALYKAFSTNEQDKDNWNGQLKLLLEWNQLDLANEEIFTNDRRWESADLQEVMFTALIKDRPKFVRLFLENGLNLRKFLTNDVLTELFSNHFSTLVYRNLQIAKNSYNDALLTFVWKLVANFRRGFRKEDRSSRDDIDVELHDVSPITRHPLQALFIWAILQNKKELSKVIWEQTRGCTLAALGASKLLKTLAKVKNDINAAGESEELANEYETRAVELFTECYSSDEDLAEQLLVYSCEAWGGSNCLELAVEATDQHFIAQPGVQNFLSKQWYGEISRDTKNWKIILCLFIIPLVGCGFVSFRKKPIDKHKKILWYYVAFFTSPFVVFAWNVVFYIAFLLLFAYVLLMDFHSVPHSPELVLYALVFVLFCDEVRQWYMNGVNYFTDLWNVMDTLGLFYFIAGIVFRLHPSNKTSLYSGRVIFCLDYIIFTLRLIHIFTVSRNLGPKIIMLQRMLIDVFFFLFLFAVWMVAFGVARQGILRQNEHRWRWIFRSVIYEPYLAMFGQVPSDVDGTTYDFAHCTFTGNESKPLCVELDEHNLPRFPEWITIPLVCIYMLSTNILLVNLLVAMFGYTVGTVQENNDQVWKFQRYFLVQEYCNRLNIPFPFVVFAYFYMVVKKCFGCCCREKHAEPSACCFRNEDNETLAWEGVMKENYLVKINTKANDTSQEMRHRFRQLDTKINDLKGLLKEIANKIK

SMILES	IC50 [nM]	inhibition at 0.2 µM [1] [%]	inhibition at 0.2 µM (read-out: % Inh @ 0.2 (μM)) [%]	inhibition at 0.5 µM [2] [%]
O=S(=O)(c1ccccc1)N(CCC(F)(F)F)c1sc2ccccc2c1Br [Compound 250, N-(3-Bromo-benzo[b]thiophen-2-yl)-N-(3,3,3-trifluoro-propyl)-benzenesulfonamide]	12.7	102	–	–
CC#CCCN(c1sc2ccccc2c1Br)S(=O)(=O)c1ccccc1 [Compound 251, N-(3-Bromo-benzo[b]thiophen-2-yl)-N-(pent-3-ynyl)-benzenesulfonamide]	38.7	95	–	–
COCCN(c1sc2ccccc2c1Br)S(=O)(=O)c1ccccc1 [Compound 252, N-(3-Bromo-benzo[b]thiophen-2-yl)-N-(2-methoxy-ethyl)-benzenesulfonamide]	17.1	102	–	–
CC(=O)CCCN(c1sc2ccccc2c1Br)S(=O)(=O)c1ccccc1 [Compound 253, N-(3-Bromo-benzo[b]thiophen-2-yl)-N-(4-oxo-pentyl)-benzenesulfonamide]	27.3	101	–	–
COP(=O)(CCN(c1sc2ccccc2c1Br)S(=O)(=O)c1ccccc1)OC [Compound 254, N-(3-Bromo-benzo[b]thiophen-2-yl)-N-(dimethoxyphosphinoyl-ethyl)-benzenesulfonamide]	125	–	58	–
O=S(=O)(c1ccccc1)N(CC1CC1)c1sc2ccccc2c1Br [Compound 255, N-(3-Bromo-benzo[b]thiophen-2-yl)-N-(cyclopropylmethyl)-benzenesulfonamide]	86	89	–	–
O=S(=O)(c1ccccc1)N(CCN1CCCCC1)c1sc2ccccc2c1Br [Compound 256, N-(3-Bromo-benzo[b]thiophen-2-yl)-N-(2-piperidin-1-yl-ethyl)-benzenesulfonamide]	30	87	–	–
O=C1CCC(=O)N1CCN(c1sc2ccccc2c1Br)S(=O)(=O)c1ccccc1 [Compound 257, N-(3-Bromo-benzo[b]thiophen-2-yl)-N-[2-(2,5-dioxo-pyrrolidin-1-yl)-ethyl]-benzenesulfonamide]	–	62	–	–
O=C1CC[C@H](CN(c2sc3ccccc3c2Br)S(=O)(=O)c2ccccc2)N1 [Compound 258, (R)—N-(3-Bromo-benzo[b]thiophen-2-yl)-N-(5-oxo-pyrrolidin-2-ylmethyl)-benzenesulfonamide]	–	25	–	–
O=C1CC[C@@H](CN(c2sc3ccccc3c2Br)S(=O)(=O)c2ccccc2)N1 [Compound 259, (S)—N-(3-Bromo-benzo[b]thiophen-2-yl)-N-(5-oxo-pyrrolidin-2-ylmethyl)-benzenesulfonamide]	–	24	–	–
CSCCN(c1sc2ccccc2c1Br)S(=O)(=O)c1ccccc1 [Compound 260, N-(3-Bromo-benzo[b]thiophen-2-yl)-N-(2-methylsulfanyl-ethyl)-benzenesulfonamide]	50	86	–	–
CCCCN(c1sc2ccccc2c1Br)S(=O)(=O)CC [Compound 261, N-(3-Bromo-benzo[b]thiophen-2-yl)-N-(butyl)-ethanesulfonamide]	12.6	97	–	–
CCS(=O)(=O)N(CC1CC1)c1sc2ccccc2c1Br [Compound 262, N-(3-Bromo-benzo[b]thiophen-2-yl)-N-(cyclopropylmethyl)-ethanesulfonamide]	67	94	–	–
CCS(=O)(=O)N(CC(F)F)c1sc2ccccc2c1Br [Compound 263, N-(3-Bromo-benzo[b]thiophen-2-yl)-N-(2,2-difluoro-ethyl)-ethanesulfonamide]	203	52	–	–
CCS(=O)(=O)N(CCOC(C)(C)C)c1sc2ccccc2c1Br [Compound 264, N-(3-Bromo-benzo[b]thiophen-2-yl)-N-(2-tert-butoxy-ethyl)-ethanesulfonamide]	34.1	99	–	–
CCCCN(c1sc2ccccc2c1Br)S(=O)(=O)N(C)C [Compound 265, N-(3-Bromo-benzo[b]thiophen-2-yl)-N-(butyl)-N′,N′-dimethylsulfamide]	22	90	–	–
CN(C)S(=O)(=O)N(CC1CC1)c1sc2ccccc2c1Br [Compound 266, N-(3-Bromo-benzo[b]thiophen-2-yl)-N-(cyclopropylmethyl)-N′,N′-dimethylsulfamide]	39	86	–	–
CN(C)S(=O)(=O)N(CCOC(C)(C)C)c1sc2ccccc2c1Br [Compound 267, N-(3-Bromo-benzo[b]thiophen-2-yl)-N-(2-tert-butoxy-ethyl)-N′,N′-dimethylsulfamide]	10	96	–	–

SMILES	IC50 [nM]	inhibition at 0.2 µM [1] [%]	inhibition at 0.2 µM (read-out: % Inh @ 0.2 (μM)) [%]	inhibition at 0.5 µM [2] [%]
CN(C)S(=O)(=O)N(CC(F)F)c1sc2ccccc2c1Br [Compound 268, N-(3-Bromo-benzo[b]thiophen-2-yl)-N-(2,2-difluoro-ethyl)-N′,N′-dimethylsulfamide]	–	67	–	–
CN(C)S(=O)(=O)N(CCC(F)(F)F)c1sc2ccccc2c1Br [Compound 269, N-(3-Bromo-benzo[b]thiophen-2-yl)-N-(3,3,3-trifluoropropyl)-N′,N′-dimethylsulfamide]	16	94	–	–
NCCN(c1sc2ccccc2c1Cl)S(=O)(=O)c1ccccc1 [Compound 270, N-(2-Amino-ethyl)-N-(3-chloro-benzo[b]thiophen-2-yl)-benzenesulfonamide]	338	–	–	75
COCCN(c1sc2ccccc2c1Br)S(=O)(=O)c1ccc(C(=O)O)cc1 [Compound 274, N-(3-Bromo-benzo[b]thiophen-2-yl)-N-(2-methoxyethyl)-4-carboxy-benzenesulfonamide]	36	94	–	–
CC(C)(C)OCCN(c1sc2ccccc2c1Br)S(=O)(=O)c1ccc(C(=O)O)cc1 [Compound 275, N-(3-Bromo-benzo[b]thiophen-2-yl)-N-(2-tert-butoxy-ethyl)-4-carboxy-benzenesulfonamide]	3	97	–	–
O=C(O)c1ccc(S(=O)(=O)N(CC(F)F)c2sc3ccccc3c2Br)cc1 [Compound 276, N-(3-Bromo-benzo[b]thiophen-2-yl)-N-(2,2-difluoro-ethyl)-4-carboxy-benzenesulfonamide]	71	76	–	–
O=C(O)c1ccc(S(=O)(=O)N(CCN2CCOCC2)c2sc3ccccc3c2Br)cc1 [Compound 277, N-(3-Bromo-benzo[b]thiophen-2-yl)-N-(2-morpholin-4-yl-ethyl)-4-carboxy-benzenesulfonamide]	39	91	–	–
O=C(O)c1ccc(S(=O)(=O)N(CC23CC4CC(CC(C4)C2)C3)c2sc3ccccc3c2Br)cc1 [Compound 278, N-(3-Bromo-benzo[b]thiophen-2-yl)-N-(adamant-1-yl-methyl)-4-carboxy-benzenesulfonamide]	1	98	–	–
O=C(O)c1ccc(S(=O)(=O)N(CC2CCCCC2)c2sc3ccccc3c2Br)cc1 [Compound 279, N-(3-Bromo-benzo[b]thiophen-2-yl)-N-(cyclohexylmethyl)-4-carboxy-benzenesulfonamide]	1.3	97	–	–
CCCCN(c1sc2ccccc2c1C(C)O)S(=O)(=O)CC (stereo not drawn) [Compound 280, N-(Butyl)-N-[3-(1-hydroxy-ethyl)-benzo[b]thiophen-2-yl]-ethanesulfonamide]	–	87	–	–
CCS(=O)(=O)N(CC1CC1)c1sc2ccccc2c1C(C)O (stereo not drawn) [Compound 281, N-(Cyclopropylmethyl)-N-(3-(1-hydroxyethyl)benzo[b]thiophen-2-yl)-ethanesulfonamide]	–	62	–	–
CCS(=O)(=O)N(CCC(F)(F)F)c1sc2ccccc2c1C(C)O (stereo not drawn) [Compound 282, N-(3-(1-Hydroxyethyl)benzo[b]thiophen-2-yl)-N-(3,3,3-trifluoro-propyl)-ethanesulfonamide]	70	86	–	–
CCS(=O)(=O)N(CCOC(C)(C)C)c1sc2ccccc2c1C(C)O (stereo not drawn) [Compound 283, N-(2-tert-Butoxyethyl)-N-(3-(1-hydroxyethyl)benzo[b]thiophen-2-yl)-ethanesulfonamide]	92	82	–	–
Cc1c(N(Cc2ccc(F)c(F)c2)S(=O)(=O)c2ccc(O)cc2)sc2ccccc12 [Compound 285, N-(3,4-Difluoro-benzyl)-N-(3-methyl-benzo[b]thiophen-2-yl)-4-hydroxy-benzenesulfonamide]	2.5	–	–	100
Cc1c(N(Cc2ccc(F)c(F)c2)S(=O)(=O)c2cccc(O)c2)sc2ccccc12 [Compound 286, N-(3,4-Difluoro-benzyl)-N-(3-methyl-benzo[b]thiophen-2-yl)-3-hydroxy-benzenesulfonamide]	7	–	–	99
O=S(=O)(c1ccccc1)N(Cc1cccc(O)c1)c1cc2ccccc2s1 [Compound 287, N-(Benzo[b]thiophen-2-yl)-N-(3-hydroxy-benzyl)-benzenesulfonamide]	29.8	–	–	96
O=S(=O)(c1cccc(O)c1)N(Cc1ccc(F)c(C(F)(F)F)c1)c1sc2ccccc2c1Cl [Compound 288, N-(3-Chloro-benzo[b]thiophen-2-yl)-N-(4-fluoro-3-trifluoromethyl-benzyl)-3-hydroxy-benzenesulfonamide]	20	90	–	–
O=S(=O)(c1ccc(O)cc1)N(Cc1ccc(F)c(C(F)(F)F)c1)c1sc2ccccc2c1Cl [Compound 289, N-(3-Chloro-benzo[b]thiophen-2-yl)-N-(4-fluoro-3-trifluoromethyl-benzyl)-4-hydroxy-benzenesulfonamide]	27	92	–	–
